Common to all, as to type: cell-based, human
The subject of assay [1] is IMR90 ER:RAS cells. Nature of the assay: Golgi dispersal by TGN46 staining, high throughput microscopy. As to conditions: 4OHT-induced senescent cells; 7 days after addition of the drugs; FIGS. 10A-B. On the procedure:
(§1) Immunofluorescence staining was carried out by first fixing wells of 96 well plate at desired timepoint for 1 hour using 4% PFA (w/v, in PBS) followed by washing 3 times with PBS. Wells were then permeabilized using 0.2% Triton® X-100 (v/v, PBS) for 10 min or with 0.5% Triton® X-100 (v/v, PBS) for COPI staining. Wells were then washed twice with PBS to halt permeabilization and then non-specific antibody binding blocked by incubation with a blocking solution for 1 hour at RT. Blocking solution contained 1% BSA (w/v, PBS) supplemented with 0.4% Fish Skin Gelatin (v/v, PBS). Primary antibodies were diluted in respective blocking solution (see ‘Antibodies’ for dilutions), blocking solution removed from well and incubated with primary antibody solution for 1 hour at RT. For BrdU staining primary antibody solution is supplemented with 0.5 U/ul DNase (Sigma) and 1 mM MgCl2 and incubation times reduced to 30 minutes. […]
(§2) High content image analysis was carried out using the InCell Investigator 2.7.3 software (GE Healthcare®). […] Quantification for nuclear staining was measured as average pixel intensity (grey scale) for the wavelength of fluorophore across the area of the nuclear mask. Cytoplasmic staining quantification was of either the average pixel intensity or the coefficient of variance of pixel intensities within collar area. […]

Assay [2] relates to IMR90 ER:RAS cells. Put plainly: Unfolded protein response markers (CHOP, XBP1, ATF6) by high throughput microscopy. As to conditions: 4OHT treated and control cells; FIGS. 13A-D. Here is the method: as §1, §2
In assay [3] the test system is IMR90 ER:RAS cells. Put plainly: Senolytic activity under IRE1 inhibition with KIRA6. As to conditions: with 600 nM KIRA6, 4OHT treated cells; FIGS. 15A-B. On the procedure: High-throughput microscopy survival assay—To assess senolytic effect of drugs, cells were cultured for 7 days, culture media was changed to DM0.5 media and drugs in DMSO were added (<5% v/v final concentration), drugs were replenished after 3 days if assay length was longer than 72 h. Wells were fixed in 4% PFA for 1 hour at day 10 to 14, washed 3 times with PBS and then stained with 1 μg/mL DAPI (w/v, PBS) for 10 minutes. Wells were then washed 3 times with PBS. Optionally plates could be stored at 4° C. for up to 2 weeks and DAPI stained. Image acquisition of DAPI stained cells was performed on an automated InCell Analyser 2000 (GE Healthcare®) and high-content analysis on the InCell Investigator 2.7.3 software used to quantify number of DAPI positive cells per well. A top-hat method was used to segment cell-nuclei based on DAPI stained area and a minimum nuclear area threshold of 80 μm used to exclude debris. For cancer cell lines, nuclear area threshold was reduced to 40 μm. Survival was measured as cell counts relative to DMSO treated quiescent or senescent cells.
To investigate whether the activation of UPR caused by NMT inhibition in senescent cells was responsible for the senolytic potential of NMT inhibitors, cells were treated with KIRA6, a selective inhibitor of IRE1, a kinase necessary for the UPR. IMR90 ER:RAS cells undergoing senescence (after induction with 4OHT), were treated with 600 nM KIRA6 (an IRE1 inhibitor) on day 4 post-induction. On day 7 post-induction, cells were treated with Compound 1 or 2 and 600 nM KIRA6. […] Both NMT inhibitor and Kira6 were replenished 3 days after addition of NMT inhibitor (at day 10 post-induction). Data is shown as mean±SD, n represents independent biological experiments.

Turning to `Cc1c(NS(=O)(=O)c2c(Cl)cc(-c3ccnc(N4CCNCC4)c3)cc2Cl)c(CC(C)C)nn1C` [Compound 2], in assay [1], the “Golgi dispersal (TGN46 distribution)” value is reported as “selectively caused Golgi dispersal on senescent cells”. For the same compound, the “UPR activation (nuclear CHOP, XBP1, ATF6; percentage of cells above threshold)” value in assay [2] is “causes the induction of the unfolded protein response on senescent cells”. The “Dependence of senolytic activity on IRE1 / UPR” value in assay [3] was “dependent on IRE1 and the unfolded protein response”.

As for `Cc1nn(C)c(C)c1CCOc1c(-c2ccc3c(c2)c(CN(C)C)nn3C)ccc(F)c1F` [Compound 1, 1-(5-(3,4-difluoro-2-(2-(1,3,5-trimethyl-1H-pyrazol-4-yl)ethoxy)phenyl)-1-methyl-1H-indazol-3-yl)-N,N-dimethylmethanamine], in assay [1], the “Golgi dispersal (TGN46 distribution)” value is “selectively caused Golgi dispersal on senescent cells”. Further, in assay [2], the “UPR activation (nuclear CHOP, XBP1, ATF6; percentage of cells above threshold)” value was “causes the induction of the unfolded protein response on senescent cells”. In addition, the “Dependence of senolytic activity on IRE1 / UPR” value in assay [3] is “dependent on IRE1 and the unfolded protein response”.

The record behind these values is patent US12691100B2, “NMT inhibitor treatment of a senescence-associated disease or disorder of the liver” (Imperial College Innovations Limited, priority 2020, dated 2026).
